Type in all cases: cell-based, human
In experiment [1] the test system is foam cell formation on the VSA. Nature of the experiment: VSA foam cell assay (BODIPY staining). As to conditions: for foam cell generation (BODIPY): day 10, vs. control; for foam cell formation (BODIPY): day 10, vs. control 100%. The method, then: Experimental: (1) Fabrication of large-scale VSA high throughput culture systems: Individual VSAs were fabricated in each well of a 48-well tissue culture plate, following the method described in Example 4 (FIG. 7A, step 1), to create a high throughput culture system for testing drug effects on atherosclerosis. (2) The VSAs were divided into two groups: treated and untreated. (3) The treated group was treated with rosuvastatin (10 uM) or sirolimus (10 nM) by dilution of the stock solution into the “culture medium 7” on day 0 (FIG. 7B, step 2). (4) The VSAs, both treated and untreated, were co-cultured for 10 days with a fresh culture medium 7 with monocytes added on day 3 and day 7, respectively. (5) BODIPY staining was used to quantify foam cell formation: On day 10, a 10 mM BODIPY stock solution was prepared by dissolving in DMSO and stored at −20° C. Before the experiment, a 100 times diluted working solution was prepared from the stock solution using PBS. The VSAs were gently washed with PBS, then BODIPY was added, incubated in the dark for 30 min, imaged immediately using a microscope, and quantified at ex/em 485 nm/520 nm.
Experimental: (1) Fabrication of VSA high throughput culture systems: the large-scale VSA high throughput culture system was achieved by fabricating individual VSAs in each well of the 48-well tissue culture plate, following the same method described in Example 4 (FIG. 7A, step 1). (2) Divide the VSAs into two groups. (3) Treatment of VSAs in one group with curcumin (200 uM) or colchicine (100 nM) by dilution of the stock solution into the “culture medium 7” containing monocytes on day 0 (FIG. 7B, step 2). (4) The VSAs, treated or untreated, were co-cultured for 10 days. A fresh culture medium 7 was added to the co-culture system on day 3 and day 7, respectively. (5) BODIPY staining: On day 10, 10 mM BODIPY stock solution was prepared by dissolving in DMSO and stored at −20° C. Before the experiment, 100 times diluted working solution was prepared from stock solution using PBS. Then, the VSAs treated or untreated with curcumin (200 uM), and colchicine (100 nM) were gently washed with PBS, then BODIPY was added and incubated in the dark.
Experimental: (1) Fabrication of VSA high throughput culture systems: the large-scale VSA high throughput culture system was achieved by fabricating individual VSAs in each well of the 48-well tissue culture plate, following the same method described in Example 4 (FIG. 7A, step 1). (2) Divide the VSAs into two groups. (3) Treatment of VSAs in one group with free miR-146a (600 nM) by dilution of the stock solution into the culture medium 7 on day 0 (FIG. 7B, step 2). (4) The VSAs, treated or untreated, were co-cultured for 10 days. […]

The subject of experiment [2] is atherosclerosis-related gene expression of VSAs. Nature of the experiment: VSA gene assay (qRT-PCR). The method, then:
Experimental: To create a large-scale VSA high throughput culture system, individual VSAs were fabricated in each well of a 48-well tissue culture plate using the method described in Example 4 (FIG. 7A, step 1). The VSAs were then divided into two groups. One group was treated with rosuvastatin (10 uM) and sirolimus (10 nM) by diluting the stock solution into the “culture medium 7” containing monocytes on day 0 (FIG. 7B, step 2). The treated and untreated VSAs were co-cultured for 10 days with fresh culture medium 7 with monocytes added on day 3 and day 7, respectively. On day 10, RNA was extracted using the TRIzol™ reagent (Invitrogen) and purified using the Direct-Zol™ RNA Miniprep Plus kit following the protocol (Zymo Research). EDTA was added before phase separation to bind the calcium and help disintegrate the nanomatrix VSAs. The upper transparent aqueous phase was collected and RNA was suspended in nuclease-free water. The concentration and purity of RNA for each sample were determined using an ND-1000 UV spectrophotometer (Nanodrop). Complementary DNA was synthesized using 50 ng of RNA and reverse transcribed in a 2720 Thermo Cycler (Applied Biosystems) using a Verso cDNA Synthesis Kit (Thermo Fisher) according to the manufacturer's protocol. Samples were prepared in a 96-well PCR plate using the TaqMan Master Mix protocol. Each sample consisted of 2 μL of cDNA solution, 10 μL of 2× master mix, 7 μL of RNA-free water, and 1 μL of gene primer from a TaqMan Gene Expression Assay kit (Applied Biosytems). The PCR plate was run in a LightCycler 480 (Roche Life Science) for the following cycles: pre-incubation at 50° C. for 2 minutes and 95° C. for 10 min; amplification for 45 cycles, at 95° C. for 15 seconds, and 60° C. for 1 minute during each cycle; melting at 95° C. for 5 seconds and 65° C. for 1 minute, and cooling at 40° C. for 30 seconds.
Experimental: (1) Fabrication of VSA high throughput culture systems: the large-scale VSA high throughput culture system was achieved by fabricating individual VSAs in each well of the 48-well tissue culture plate, following the same method described in Example 4 (FIG. 7A, step 1). (2) Divide the VSAs into two groups. (3) Treatment of VSAs in one group with curcumin (200 uM) or colchicine (100 nM) by dilution of the stock solution into the “culture medium 7” containing monocytes on day 0 (FIG. 7B, step 2). (4) The VSAs, treated or untreated, were co-cultured for 10 days. A fresh culture medium 7 with monocytes was added to the co-culture system on day 3 and day 7, respectively. (5) RNA extraction and real-time qRT-PCR: On day 10, before phase separation, EDTA (Ethylenediaminetetraacetic acid) was added to bind the calcium and help disintegrate the nanomatrix VSAs. For phase separation, TRIzol™ reagent was added to the samples (>9 times of the sample volume) and incubated for 5 min. Then chloroform was added, mixed by shaking, and centrifuged (11,600 g, 15 min, 4° C.) to obtain phase separation. The upper transparent aqueous phase was collected and purified using the Direct-Zol™ RNA Miniprep Plus kit following the protocol. RNA was suspended in nuclease-free water, and an ND-1000 UV spectrophotometer was used to quantify the concentration and purity of RNA for each sample. Complementary DNA was then synthesized using 50 ng of RNA, which was reverse transcribed in a 2720 Thermo Cycler (Applied Biosystems) using a Verso cDNA Synthesis Kit according to the manufacturer's protocol. Samples were prepared in a 96-well PCR plate using the TaqMan Master Mix protocol. Each sample consisted of 2 μL of cDNA solution, 10 μL of 2× master mix, 7 μL of RNA-free water, and 1 μL of gene primer from a TaqMan Gene Expression Assay kit. […]

The test system of experiment [3] is cytokine secretion of VSAs. Nature of the experiment: VSA cytokine assay (ELISA of supernatant). As to the method:
(§1) Experimental: (1) Fabrication of VSA high throughput culture systems: large-scale VSA high throughput culture systems were achieved by fabricating individual VSAs in each well of the 48-well tissue culture plate, following the same method described in Example 4 (FIG. 7A, step 1). (2) Divide the VSAs into two groups. (3) Treatment of VSAs in one group with rosuvastatin (10 uM) or sirolimus (10 nM) by dilution of the stock solution into the culture medium 7 on day 0 (FIG. 7B, step 2). (4) The VSAs, treated or untreated, were culturing in culture medium 7 for 10 days. A fresh culture medium 7 was added to the co-culture system on day 3 and day 7, respectively. (5) ELISA: On day 10, the supernatant from VSAs was collected for ELISA to measure the significant inflammatory cytokine secretion.
as §1, with “systems: the” for “systems:”, “system was” for “systems were”, “curcumin (200” for “rosuvastatin (10”, “colchicine (100” for “sirolimus (10”, “cultured using” for “culturing in”, “measure” for “measure the significant”
as §1, with “systems: the” for “systems:”, “system was” for “systems were”, “free miR-146a (600 nM)” for “rosuvastatin (10 uM)”, “Lip-miR-146a (600” for “sirolimus (10”, “co-cultured” for “culturing in culture medium 7”, “Afresh” for “A fresh”
In general terms: In an ELISA, binding on a coated surface is turned into a signal by an enzyme label.

Experiment [4] relates to cytokine secretion of VSAs. As to the kind of experiment: VSA cytokine assay (ELISA of supernatant). The source holds these as a separate data set.
The mark [5] stands for this setting: curcumin 200 uM, day 10, vs. control.
The mark [6] stands for this setting: sirolimus 10 nM, day 10, of the control group.
Setting [7] is: sirolimus 10 nM, day 10, relative to the control.
[8] abbreviates: colchicine 100 nM, day 10, vs. control.
The mark [9] stands for this setting: rosuvastatin 10 uM, day 10, compared to the control.
Setting [10] is: rosuvastatin 10 uM, day 10, vs. control.

Each structure is given as a SMILES string.

As for `COc1cc(/C=C/C(=O)CC(=O)/C=C/c2ccc(O)c(OC)c2)ccc1O` [curcumin], in experiment [1] (curcumin 200 uM), the “foam cell generation (BODIPY)” value was 31.23±5.68%. In experiment [2] (setting [5]), this compound gave an MMP-2 gene expression of 39.22±7.14%, a PECAM-1 gene expression of 29.71±5.68% and a VEGF-A gene expression of 38.01±5.68%. In experiment [3] (setting [5]), this compound yielded an IL-1α production of 80.58±4.91% and an IL-10 production of 2.10±0.29 fold. In addition, in experiment [4] (setting [5]), the IL-8 production came to 40.90±5.72% and the MCP-1 production worked out at 76.87±3.35%.

As to `CO[C@H]1C[C@@H]2CC[C@@H](C)[C@@](O)(O2)C(=O)C(=O)N2CCCC[C@H]2C(=O)O[C@H]([C@H](C)C[C@@H]2CC[C@@H](O)[C@H](OC)C2)CC(=O)[C@H](C)/C=C(\C)[C@@H](O)[C@@H](OC)C(=O)[C@H](C)C[C@H](C)/C=C/C=C/C=C/1C` [sirolimus], the “foam cell formation (BODIPY)” value in experiment [1] (sirolimus 10 nM) was 42.73±10.62%. Further, in experiment [4] (setting [6]), the IFN-γ production stood at 43.64±17.04%, the MCP-1 production worked out at 22.76±2.56% and the TNF-α production worked out at 40.67±6.42%. In experiment [4] (setting [7]), the IL-4 secretion is 6.42±3.59 fold and the IL-13 secretion is recorded as 1.67±0.59 fold.

On to `COc1cc2c(c(OC)c1OC)-c1ccc(OC)c(=O)cc1[C@@H](NC(C)=O)CC2` [colchicine], for which, in experiment [1] (colchicine 100 nM), the “foam cell generation (BODIPY)” value stood at 50.86±4.57%. In experiment [2] (setting [8]), this compound registered a COL3A1 gene expression of 8.93±1.30%, an MMP-2 gene expression of 6.36±1.44% and a PECAM-1 gene expression of 3.35±0.68 fold. This compound also showed an IL-1α production in experiment [3] (colchicine 100 nM, day 10) of 71.31±5.84%. In experiment [3] (setting [8]), this compound came in with an IL-4 production of 1.39±0.14 fold and an IL-8 production of 42.57±1.80%. Further, in experiment [4] (setting [8]), the IFN-γ production is 61.95±7.79%, the MCP-1 production is given as 26.31±1.77% and the TNF-α production came out at 53.16±7.92%.

`CC(C)c1nc(N(C)S(C)(=O)=O)nc(-c2ccc(F)cc2)c1/C=C/[C@@H](O)C[C@@H](O)CC(=O)O` [rosuvastatin]: in experiment [1] (rosuvastatin 10 uM), the “foam cell formation (BODIPY)” value worked out at 50.77±8.32%. Also, in experiment [2] (setting [9]), the MMP-2 gene expression was found to be 4.46±1.75% and the VEGF-A gene expression entry is “significantly lower”. In experiment [2] (rosuvastatin 10 uM, day 10, of control), the IL-6 gene expression is recorded as 5.20±0.38%. In experiment [2] (setting [10]), the COL17A1 gene expression is on record as 127.03±35.49 fold and the PECAM-1 gene expression is recorded as 146.76±44.63 fold. In experiment [3] (setting [10]), this compound returned an IFN-γ production of 44.03±3.20%, an IL-1α production of 66.78±6.52%, an IL-6 production of 71.50±4.34% and a TNF-α production of 39.69±5.53%. This compound returned an IL-10 secretion in experiment [4] (rosuvastatin 10 uM, day 10, compared with the control) of 2.10±0.50 fold. Also, the IL-8 production in experiment [4] (setting [10]) was determined as 48.64±6.17%.
